Reference: patent US6447997B1, “Gene coding for GADD153 as a clinical diagnostic and prognostic in cancer therapy” (Research Development Foundation, priority 1997, dated 2002)

Tested on: GADD153 mRNA
Experiment: GADD153 mRNA level in 2008 ovarian carcinoma cells after paclitaxel
Type: cell-based
Details: concentration 10 times the IC50, 24 hours

For `CC(=O)O[C@H]1C(=O)[C@@]2(C)[C@H]([C@H](OC(=O)c3ccccc3)[C@]3(O)C[C@H](OC(=O)[C@H](O)[C@@H](NC(=O)c4ccccc4)c4ccccc4)C(C)=C1C3(C)C)[C@]1(OC(C)=O)CO[C@@H]1C[C@@H]2O` [paclitaxel], the “increase in GADD153 mRNA level” value was 5.7±2.5 fold.
